Reference: patent publication US20240000872A1, “NOVEL BACTERIOPHAGE THAT LYSES ACINETOBACTER GENUS BACTERIA HAVING RESISTANCE TO ANTIBIOTICS” (priority 2020, published 2024)

System: Acinetobacter baumannii strains
Assay: Antibiotic susceptibility test (CLSI disk diffusion test method, read per CLSI 2016); further: key: ‘S’ means susceptible; ‘I’ means intermediate; ‘R’ means resistant
Assay type: cell-based

C[C@@H](O)[C@H]1C(=O)N2C(C(=O)O)=C(S[C@@H]3CN[C@H](C(=O)N(C)C)C3)[C@H](C)[C@H]12 [Meropenem, meropenem]
S: antibiotic susceptibility S/I/R (host strain YMC17/02/B4864) | susceptibility category (S/I/R) (host strain YMC17/02/B4864)
R: antibiotic susceptibility class (host strain YMC14/01/C29) | antibiotic susceptibility class (host strain YMC14/01/IP122) | antibiotic susceptibility class (host strain YMC14/01/L8) | antibiotic susceptibility class (host strain YMC14/01/P31) | antibiotic susceptibility class (host strain YMC14/01/P117) | antibiotic susceptibility class (host strain YMC14/01/P224) | antibiotic susceptibility class (host strain YMC14/01/P727) | antibiotic susceptibility class (host strain YMC14/01/P728) | antibiotic susceptibility class (host strain YMC14/01/R130) | antibiotic susceptibility class (host strain YMC14/01/R160) | antibiotic susceptibility class (host strain YMC14/01/R198) | antibiotic susceptibility class (host strain YMC14/01/R257) | antibiotic susceptibility class (host strain YMC14/01/R270) | antibiotic susceptibility class (host strain YMC14/01/R324) | antibiotic susceptibility class (host strain YMC14/01/R443) | antibiotic susceptibility class (host strain YMC14/01/R451) | antibiotic susceptibility class (host strain YMC14/01/R560) | antibiotic susceptibility class (host strain YMC14/01/R617) | antibiotic susceptibility class (host strain YMC14/01/R671) | antibiotic susceptibility class (host strain YMC14/01/R732) | antibiotic susceptibility class (host strain YMC14/01/R767) | antibiotic susceptibility class (host strain YMC14/01/R904) | antibiotic susceptibility class (host strain YMC14/01/R905) | antibiotic susceptibility class (host strain YMC14/01/R921) | antibiotic susceptibility class (host strain YMC14/01/R941) | antibiotic susceptibility class (host strain YMC14/01/R958) | antibiotic susceptibility class (host strain YMC14/01/R1006) | antibiotic susceptibility class (host strain YMC14/01/R1199) | antibiotic susceptibility class (host strain YMC14/01/R1659) | antibiotic susceptibility class (host strain YMC14/01/R1722) | antibiotic susceptibility class (host strain YMC14/01/R1752) | antibiotic susceptibility class (host strain YMC14/01/R2429) | antibiotic susceptibility class (host strain YMC14/01/R2572) | antibiotic susceptibility class (host strain YMC14/01/R2855) | antibiotic susceptibility class (host strain YMC14/01/R2945) | antibiotic susceptibility class (host strain YMC14/01/R3007) | antibiotic susceptibility class (host strain YMC14/01/R3129) | antibiotic susceptibility class (host strain YMC14/01/R3317) | antibiotic susceptibility class (host strain YMC14/01/R3474) | antibiotic susceptibility class (host strain YMC14/01/R3574) | antibiotic susceptibility class (host strain YMC14/01/U313) | antibiotic susceptibility class (host strain YMC14/01/U318) | antibiotic susceptibility class (host strain YMC14/02/L18) | antibiotic susceptibility class (host strain YMC14/02/P47) | antibiotic susceptibility class (host strain YMC14/02/R1860) | antibiotic susceptibility class (host strain YMC14/02/R2417) | antibiotic susceptibility class (host strain YMC14/02/R2599) | antibiotic susceptibility class (host strain YMC14/02/R2668) | antibiotic susceptibility class (host strain YMC14/02/R2758) | antibiotic susceptibility class (host strain YMC14/02/R2781) | antibiotic susceptibility class (host strain YMC14/02/R3106) | antibiotic susceptibility class (host strain YMC14/02/R3419) | antibiotic susceptibility class (host strain YMC14/02/U1607) | antibiotic susceptibility class (host strain YMC14/03/L9) | antibiotic susceptibility class (host strain YMC14/03/P471) | antibiotic susceptibility class (host strain YMC14/03/R122) | antibiotic susceptibility class (host strain YMC14/03/R217) | antibiotic susceptibility class (host strain YMC14/03/R380) | antibiotic susceptibility class (host strain YMC14/03/R618) | antibiotic susceptibility class (host strain YMC14/03/R2144) | antibiotic susceptibility class (host strain YMC14/03/U4616) | antibiotic susceptibility class (host strain YMC14/04/R1078) | antibiotic susceptibility class (host strain YMC14/04/R1080) | antibiotic susceptibility S/I/R (host strain YMC14/06/R2359) | susceptibility category (S/I/R) (host strain YMC14/06/R2359) | antibiotic susceptibility S/I/R (host strain YMC14/08/R1169) | susceptibility category (S/I/R) (host strain YMC14/08/R1169) | antibiotic susceptibility S/I/R (host strain YMC14/08/T90) | susceptibility category (S/I/R) (host strain YMC14/08/T90) | antibiotic susceptibility S/I/R (host strain YMC15/02/R436) | susceptibility category (S/I/R) (host strain YMC15/02/R436) | antibiotic susceptibility S/I/R (host strain YMC15/02/T28) | susceptibility category (S/I/R) (host strain YMC15/02/T28) | antibiotic susceptibility S/I/R (host strain YMC15/03/R1604) | susceptibility category (S/I/R) (host strain YMC15/03/R1604) | antibiotic susceptibility S/I/R (host strain YMC15/09/R1869) | susceptibility category (S/I/R) (host strain YMC15/09/R1869) | antibiotic susceptibility S/I/R (host strain YMC16/01/P11) | susceptibility category (S/I/R) (host strain YMC16/01/P11) | antibiotic susceptibility S/I/R (host strain YMC16/01/R123) | susceptibility category (S/I/R) (host strain YMC16/01/R123) | antibiotic susceptibility S/I/R (host strain YMC16/01/R198) | susceptibility category (S/I/R) (host strain YMC16/01/R198) | antibiotic susceptibility S/I/R (host strain YMC16/01/R353) | susceptibility category (S/I/R) (host strain YMC16/01/R353) | antibiotic susceptibility S/I/R (host strain YMC16/01/R380) | susceptibility category (S/I/R) (host strain YMC16/01/R380) | antibiotic susceptibility S/I/R (host strain YMC16/01/R397) | susceptibility category (S/I/R) (host strain YMC16/01/R397) | antibiotic susceptibility S/I/R (host strain YMC16/01/R405) | susceptibility category (S/I/R) (host strain YMC16/01/R405) | antibiotic susceptibility S/I/R (host strain YMC16/03/R4461) | susceptibility category (S/I/R) (host strain YMC16/03/R4461) | antibiotic susceptibility S/I/R (host strain YMC16/05/R2210) | susceptibility category (S/I/R) (host strain YMC16/05/R2210) | antibiotic susceptibility S/I/R (host strain YMC16/07/R2512) | susceptibility category (S/I/R) (host strain YMC16/07/R2512) | antibiotic susceptibility S/I/R (host strain YMC16/09/R2471) | susceptibility category (S/I/R) (host strain YMC16/09/R2471) | antibiotic susceptibility S/I/R (host strain YMC16/10/R2537) | susceptibility category (S/I/R) (host strain YMC16/10/R2537) | antibiotic susceptibility S/I/R (host strain YMC16/12/B11422) | susceptibility category (S/I/R) (host strain YMC16/12/B11422) | antibiotic susceptibility S/I/R (host strain YMC16/12/B11449) | susceptibility category (S/I/R) (host strain YMC16/12/B11449) | antibiotic susceptibility S/I/R (host strain YMC16/12/B13325) | susceptibility category (S/I/R) (host strain YMC16/12/B13325) | antibiotic susceptibility S/I/R (host strain YMC16/12/P503) | susceptibility category (S/I/R) (host strain YMC16/12/P503) | antibiotic susceptibility S/I/R (host strain YMC16/12/R4637) | susceptibility category (S/I/R) (host strain YMC16/12/R4637) | antibiotic susceptibility S/I/R (host strain YMC17/01/B8053) | susceptibility category (S/I/R) (host strain YMC17/01/B8053) | antibiotic susceptibility S/I/R (host strain YMC17/01/B10087) | susceptibility category (S/I/R) (host strain YMC17/01/B10087) | antibiotic susceptibility S/I/R (host strain YMC17/01/B12075) | susceptibility category (S/I/R) (host strain YMC17/01/B12075) | antibiotic susceptibility S/I/R (host strain YMC17/01/B13454) | susceptibility category (S/I/R) (host strain YMC17/01/B13454) | antibiotic susceptibility S/I/R (host strain YMC17/01/P518) | susceptibility category (S/I/R) (host strain YMC17/01/P518) | antibiotic susceptibility S/I/R (host strain YMC17/01/R2812) | susceptibility category (S/I/R) (host strain YMC17/01/R2812) | antibiotic susceptibility S/I/R (host strain YMC17/02/B14) | susceptibility category (S/I/R) (host strain YMC17/02/B14) | antibiotic susceptibility S/I/R (host strain YMC17/02/B87) | susceptibility category (S/I/R) (host strain YMC17/02/B87) | antibiotic susceptibility S/I/R (host strain YMC17/02/B721) | susceptibility category (S/I/R) (host strain YMC17/02/B721) | antibiotic susceptibility S/I/R (host strain YMC17/02/B4039) | susceptibility category (S/I/R) (host strain YMC17/02/B4039) | antibiotic susceptibility S/I/R (host strain YMC17/02/B4520) | susceptibility category (S/I/R) (host strain YMC17/02/B4520) | antibiotic susceptibility S/I/R (host strain YMC17/02/B8414) | susceptibility category (S/I/R) (host strain YMC17/02/B8414) | antibiotic susceptibility S/I/R (host strain YMC17/02/P523) | susceptibility category (S/I/R) (host strain YMC17/02/P523) | antibiotic susceptibility S/I/R (host strain YMC17/02/R541) | susceptibility category (S/I/R) (host strain YMC17/02/R541) | antibiotic susceptibility S/I/R (host strain YMC17/02/R2392) | susceptibility category (S/I/R) (host strain YMC17/02/R2392) | antibiotic susceptibility S/I/R (host strain YMC17/03/B4730) | susceptibility category (S/I/R) (host strain YMC17/03/B4730) | antibiotic susceptibility S/I/R (host strain YMC17/03/B5000) | susceptibility category (S/I/R) (host strain YMC17/03/B5000) | antibiotic susceptibility S/I/R (host strain YMC17/03/P971) | susceptibility category (S/I/R) (host strain YMC17/03/P971) | antibiotic susceptibility S/I/R (host strain YMC17/03/R348) | susceptibility category (S/I/R) (host strain YMC17/03/R348) | antibiotic susceptibility S/I/R (host strain YMC17/03/R585) | susceptibility category (S/I/R) (host strain YMC17/03/R585) | antibiotic susceptibility S/I/R (host strain YMC17/03/R1888) | susceptibility category (S/I/R) (host strain YMC17/03/R1888) | antibiotic susceptibility S/I/R (host strain YMC17/03/R3279) | susceptibility category (S/I/R) (host strain YMC17/03/R3279) | antibiotic susceptibility S/I/R (host strain YMC17/03/R4077) | susceptibility category (S/I/R) (host strain YMC17/03/R4077) | antibiotic susceptibility S/I/R (host strain YMC17/03/R4607) | susceptibility category (S/I/R) (host strain YMC17/03/R4607) | antibiotic susceptibility S/I/R (host strain YMC17/04/R488) | susceptibility category (S/I/R) (host strain YMC17/04/R488) | antibiotic susceptibility S/I/R (host strain YMC17/04/R640) | susceptibility category (S/I/R) (host strain YMC17/04/R640) | antibiotic susceptibility S/I/R (host strain YMC/17/05/R1095) | susceptibility category (S/I/R) (host strain YMC/17/05/R1095)
